The record followed here is PMC7422721 (ACS chemical biology, 2019).

Experiment [1] has as its target T1, RNF4 (Homo sapiens, UniProt P78317).
T1 sequence (P78317 1-190): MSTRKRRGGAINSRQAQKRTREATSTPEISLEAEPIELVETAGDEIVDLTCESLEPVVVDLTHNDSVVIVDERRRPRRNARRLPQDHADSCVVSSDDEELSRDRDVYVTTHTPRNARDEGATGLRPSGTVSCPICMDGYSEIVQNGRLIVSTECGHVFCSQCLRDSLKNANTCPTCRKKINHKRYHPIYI
Kind of experiment: competitive gel-based ABPP against IA-rhodamine labeling of pure RNF4. Type of experiment: binding.

The target of experiment [2] is T1, RNF4. Put plainly: LC-MS/MS of covalent adduct on purified RNF4. It is filed as binding.

A word on the IC50: it is the concentration that inhibits the measured activity by half. For the compound `Cc1sc2c(c1C)C(c1ccc(Cl)cc1)=N[C@@H](CC(=O)NCCCCOc1ccc(Oc3ccc(N(Cc4ccccc4)C(=O)CCl)cc3)cc1)c1nnc(C)n1-2` [CCW 28-3, CCW 28–3], the IC50 at RNF4 [1] was determined as 540 nM. Regarding TRH 1–23 [TRH 1-23], on RNF4 [2], the IC50 result is on record as “double digit micromolar”.
